From US9758492B2, “IDO inhibitors” (Bristol-Myers Squibb Company, priority 2013, dated 2017)

Molecular target: IDO (Homo sapiens, UniProt P14902)
Experiment: LLE_IDO_ABS_DR (IDO assay)

IDO, sequence (P14902 whole entry): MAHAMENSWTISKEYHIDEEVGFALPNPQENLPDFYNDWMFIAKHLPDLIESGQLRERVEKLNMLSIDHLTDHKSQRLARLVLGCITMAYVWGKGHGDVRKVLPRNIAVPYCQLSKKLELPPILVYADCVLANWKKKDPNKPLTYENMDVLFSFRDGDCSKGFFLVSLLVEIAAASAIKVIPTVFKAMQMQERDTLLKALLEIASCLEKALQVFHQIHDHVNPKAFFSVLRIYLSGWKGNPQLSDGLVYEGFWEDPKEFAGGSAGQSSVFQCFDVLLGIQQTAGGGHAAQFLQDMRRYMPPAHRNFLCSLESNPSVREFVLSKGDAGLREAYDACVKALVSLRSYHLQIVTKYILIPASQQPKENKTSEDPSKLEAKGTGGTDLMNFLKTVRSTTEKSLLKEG

In order of rising IC50:
1. C#Cc1ccc(NC(=O)Nc2cc(-c3ccccc3-c3nnn[nH]3)ccc2N(CC(C)C)CC(C)C)cc1 [Example 278, 1-(4-(diisobutylamino)-2′-(1H-tetrazol-5-yl)-[1,1′-biphenyl]-3-yl)-3-(4-ethynylphenyl)urea]  1.31 nM
2. CC(C)CN(c1cc(F)c(-c2ccccc2C(=O)O)cc1NC(=O)Nc1ccc(F)cc1F)C1CCCCC1 [Example 230, 4′-(cyclohexyl(isobutyl)ami-no)-5′-(3-(2,4-difluorophenyl)ureido)-2′-fluorobiphenyl-2-carboxylic acid]  2.14 nM
3. Cc1ccc(NC(=O)Nc2cc(-c3ccccc3-c3nnn[nH]3)ccc2N(CC2CC2)C2CCCCC2)cc1 [Example 82, 1-(4-(cyclohexyl (cyclopropylmethyl)amino)-2′-(1H-tetrazol-5-yl)biphenyl-3-yl)-3-p-tolylurea]  3.8 nM
4. Cc1ccc(NC(=O)Nc2cc(-c3ccccc3-c3nnn[nH]3)cc(F)c2N(CC(C)C)CC(C)C)cc1 [Example 5, 1-(4-(Diisobutylamino)-5-fluoro-2′-(1H-tetrazol-5-yl)biphenyl-3-yl)-3-p-tolylurea]  4.05 nM
5. COCCN(Cc1ccc(Cl)cc1)c1ccc(-c2ccccc2C(=O)O)cc1NC(=O)Nc1ccc(C)cc1 [Example 192, 4′-((4-chlorobenzyl)(2-methoxyethyl)amino)-3′-(3-(p-tolyl)ureido)-[1,1′-biphenyl]-2-carboxylic acid]  7.82 nM
6. CCCCN(CCCC)c1ccc(-c2cc(F)ccc2C(=O)O)cc1NC(=O)Nc1ccc(C)cc1 [Example 90, 4′-(dibutylamino)-5-fluoro-3′-(3-p-tolylureido)biphenyl-2-carboxylic acid]  10 nM
7. Cc1ccc(NC(=O)Nc2cc(-c3ccccc3C(=O)O)ccc2N(CC(C)C)C2CCCC2)cc1 [Example 172, 4′-(cyclopentyl(isobutyl)amino)-3′-(3-p-tolylureido)biphenyl-2-carboxylic acid]  10 nM
8. CCCN(c1ccc(-c2ccccc2C(=O)O)cc1NC(=O)Nc1ccccc1F)C1CCCC1 [Example 168, 4′-(cyclopentyl(propyl)amino)-3′-(3-(2-fluorophenyl)ureido) biphenyl-2-carboxylic acid]  30 nM
9. Cc1ccc(NC(=O)Nc2cc(-c3ccccc3-c3nnn[nH]3)ccc2N(CC(C)C)CC2CCC2)cc1 [Example 98, 1-(4-((cyclobutylmethyl) (isobutyl)amino)-2′-(1H-tetrazol-5-yl)biphenyl-3-yl)-3-p-tolylurea]  30 nM
10. CC(C)CN(CC(C)C)c1ccc(-c2ccccc2-c2nnn[nH]2)cc1NC(=O)Nc1ccc(-c2cnco2)cc1 [Example 255, 1-(4-(diisobutylamino)-2′-(1H-tetrazol-5-yl)-[1,1′-biphenyl]-3-yl)-3-(4-(oxazol-5-yl)phenyl)urea]  30 nM
11. Cc1ccc(NC(=O)Nc2cc(-c3cc(F)ccc3C(=O)O)ccc2N(CC(C)C)C2CCC2)cc1 [Example 182, 4′-(cyclobutyl(isobutyl)amino)-5-fluoro-3′-(3-(p-tolyl)ureido)-[1,1′-biphenyl]-2-carboxylic acid]  50 nM
12. Cc1ccc(NC(=O)Nc2cc(-c3ccccc3-c3nnn[nH]3)ccc2Nc2ccccc2C(C)(C)C)cc1 [Example 208, 1-(4-((2-(tert-butyl)phenyl)amino)-2′-(1H-tetrazol-5-yl)-[1,1′-biphenyl]-3-yl)-3-(p-tolyl)urea]  50 nM
13. Cc1ccc(NC(=O)Nc2cc(-c3ccccc3-c3nnn[nH]3)ccc2N(CCC(F)(F)F)Cc2ccc(F)cc2)cc1 [Example 325, 1-(4-((4-fluorobenzyl)(3,3,3-trifluoropropyl)amino)-2′-(1H-tetrazol-5-yl)-[1,1′-biphenyl]-3-yl)-3-(p-tolyl)urea]  90 nM
14. Cc1ccc(NC(=O)Nc2cc(-c3cc(F)ccc3C(=O)O)ccc2N(CCC(F)(F)F)CC(C)C)cc1 [Example 200, 5-fluoro-4′-(isobutyl (3,3,3-trifluoropropyl)amino)-3′-(3-(p-tolyl)ureido)-[1,1′-biphenyl]-2-carboxylic acid]  110 nM
15. CN(c1ccc(-c2ccccc2-c2nnn[nH]2)cc1NC(=O)Nc1ccccc1F)c1ccccc1C(C)(C)C [Example 207, 1-(4-((2-(tert-butyl)phenyl) (methyl)amino)-2′-(1H-tetrazol-5-yl)-[1,1′-biphenyl]-3-yl)-3-(2-fluorophenyl)urea]  130 nM
16. CCC1CCCCN1c1ccc(-c2ccccc2-c2nnn[nH]2)cc1NC(=O)Nc1ccc(C)cc1 (stereo not shown) [Example 114, 1-(4-(2-ethylpiperidin-1-yl)-2′-(1H-tetrazol-5-yl)biphenyl-3-yl)-3-p-tolylurea]  160 nM
17. O=C(Nc1cc(-c2ccccc2-c2nnn[nH]2)ccc1N(CCC(F)(F)F)Cc1ccc(OC(F)(F)F)cc1)Nc1ccccc1C(F)(F)F [Example 342, 1-(2′-(1H-tetrazol-5-yl)-4-((4-(trifluoromethoxy)benzyl)(3,3,3-trifluoropropyl)amino)-[1,1′-biphenyl]-3-yl)-3-(2-(trifluoromethyl)phenyl)urea]  170 nM
18. CC(C)CNC(=O)Nc1cc(-c2ccccc2-c2nnn[nH]2)ccc1N(CC(C)C)CC(C)C [Example 245, 1-(4-(diisobutylamino)-2′-(1H-tetrazol-5-yl)-[1,1′-biphenyl]-3-yl)-3-isobutylurea]  180 nM
19. Cc1ccc(NC(=O)Nc2cc(-c3cc(F)ccc3C(=O)O)ccc2N(C)CC(C)C)cc1 [Example 181, 5-fluoro-4′-(isobutyl(methyl)amino)-3′-(3-(p-tolyl)ureido)-[1,1′-biphenyl]-2-carboxylic acid]  270 nM
20. CC(C)CN(CC(C)C)c1ccc(-c2ccccc2-c2nnn[nH]2)cc1NC(=O)Nc1cccc(F)c1O [Example 275, 1-(4-(diisobutylamino)-2′-(1H-tetrazol-5-yl)-[1,1′-biphenyl]-3-yl)-3-(3-fluoro-2-hydroxyphenyl)urea]  500 nM
21. Cc1ccc(NC(=O)Nc2cc(-c3cc(F)ccc3C(=O)O)ccc2N(CCC(F)(F)F)Cc2ccccc2Cl)cc1 [Example 18, 4′-((2-Chlorobenzyl)(3,3,3-trifluoropropyl)amino)-5-fluoro-3′-(3-(p-tolyl)ureido)-[1,1′-biphenyl]-2-carboxylic acid]  630 nM
22. O=C(Nc1ccc(OC(F)(F)F)cc1)Nc1cc(-c2ccccc2-c2nnn[nH]2)ccc1N1CCCc2ccccc21 [Example 363, 1-(4-(3,4-Dihydroquinolin-1(2H)-yl)-2′-(1H-tetrazol-5-yl)-[1,1′-biphenyl]-3-yl)-3-(4-(trifluoromethoxy)phenyl)urea]  900 nM
23. CC(C)CN(CC(C)C)c1ccc(-c2ccccc2-c2nnn[nH]2)cc1NC(=O)Nc1ccc(F)c(C#N)c1 [Example 250, 1-(3-Cyano-4-fluorophenyl-3-(4-diisobutylamino)-2′-(1H-tetrazol-5-yl)-[1,1′-biphenyl]-3-yl)urea]  930 nM
24. Cc1ccc(NC(=O)Nc2cc(-c3cccc(C(=O)O)c3)ccc2N(CC(C)C)CC2CCC2)cc1 [Example 97, 4′-((cyclobutylmethyl) (isobutyl)amino)-3′-(3-p-tolylureido)biphenyl-3-carboxylic acid]  4640 nM
25. Cc1cc(NC(=O)Nc2cc(-c3ccccc3-c3nnn[nH]3)ccc2N2CCCc3ccccc32)on1 [Example 366, 1-(4-(3,4-Dihydroquinolin-1(2H)-yl)-2′-(1H-tetrazol-5-yl)-[1,1′-biphenyl]-3-yl)-3-(3-methylisoxazol-5-yl)urea]  5010 nM
